Test results published in patent US20260248767A1, “METHODS FOR INDUCING FERROPTOSIS IN CANCER” (Board of Regents, The University of Texas System, priority 2023, published 2026).

Tested on: HT-1080, 786-O, U87, T98G, RCC4, H1299, A549, Hela and Hs578T
Assay: Cell death assay (PI flow cytometry), panel of cancer cell lines
Format: cell-based, human
Method: All cell lines used in this study were free of mycoplasma contamination (per testing done by the vendor). All the cells were cultured in a 37° C. incubator in a 5% CO2 atmosphere. H1299 cells were cultured in RPMI-1640 medium supplemented with 10% fetal bovine serum and 10,000 U/mL penicillin-streptomycin. HT-1080, 786-O, U87, T98G, RCC4, A549, Hela and Hs578T cells were cultured in Dulbecco modified Eagle medium (DMEM) supplemented with 10% fetal bovine serum and 10,000 U/mL of penicillin-streptomycin.
After treatment, cells were trypsinized and collected. […] All experiments were performed in triplicates.

**Q.** How did the “ferroptosis (cell death) in combination with RSL3” value (RSL3 0.2-2.0 μm plus sulfite 0.5-2 mM depending on cell line) turn out when O=S([O-])[O-].[Na+].[Na+] [sulfite, sodium sulfite] was run?
**A.** induced statistically significant ferroptosis

**Q.** And the “induction of ferroptosis (cell death)” value (sulfite alone, 0.5-2 mM depending on cell line)?
**A.** did not show induction of ferroptosis
